Read-outs that look alike come from different tables or passages of the source.

The text below walks through data of US9180128B2, “Stable pharmaceutical compositions of 5,10-methylene tetrahydrofolate” (MERCK & CIE, priority 2003, dated 2015).

The nature of series [1]: Storage stability of untreated reference sample. Type of series: physicochemical. Particulars: storage at +25° C.
The conditions of series [2]: physiological common salt solution, +25° C, cited from earlier work.

Regarding `Nc1nc2c(c(=O)[nH]1)N1CN(c3ccc(C(=O)N[C@@H](CCC(=O)[O-])C(=O)O)cc3)C[C@H]1CN2.Nc1nc2c(c(=O)[nH]1)N1CN(c3ccc(C(=O)N[C@@H](CCC(=O)[O-])C(=O)O)cc3)C[C@H]1CN2.[Ca+2]` [Co 751, calcium salt of 5,10-methylene-(6R)-tetrahydrofolic acid], the “% relative stability” value in series [1] (0 months) turned out to be 100.0%; in series [1] (0.5 months) it was 92.3%; in series [1] (1.0 months) it was 83.4%; in series [1] (1.75 months) it was 77.2%; in series [1] (2.5 months), 71.9%; in series [1] (4.5 months) it was 61.5%. Further, the “% relative stability” value in series [1] (9.2 months) came out at 49.1%; in series [1] (19.0 months) it was 43.0%.
As for `Nc1nc2c(c(=O)[nH]1)N1CN(c3ccc(C(=O)N[C@@H](CCC(=O)[O-])C(=O)O)cc3)C[C@H]1CN2.Nc1nc2c(c(=O)[nH]1)N1CN(c3ccc(C(=O)N[C@@H](CCC(=O)[O-])C(=O)O)cc3)C[C@H]1CN2.[Ca+2]` [calcium salt of 5,10-methylene-(6R,S)-tetrahydrofolic acid], the “% relative stability” value is on record as 100.0% in series [2] (with the exclusion of air, 0 hours); 58.0% in series [2] (with the exclusion of air, 4.0 hours); 38.0% in series [2] (with the exclusion of air, 24.0 hours); 18.0% in series [2] (with the exclusion of air, 26.0 hours); 8.0% in series [2] (with the exclusion of air, 48.0 hours); 100.0% in series [2] (without the exclusion of air, 0 hours). Further, the “% relative stability” value was 84% in series [2] (without the exclusion of air, 4.0 hours); 12.0% in series [2] (without the exclusion of air, 24.0 hours); 8.0% in series [2] (without the exclusion of air, 26.0 hours); 6.0% in series [2] (without the exclusion of air, 48.0 hours).
